Measured values published in patent US20230278972A1, “SUBSTITUTED HALOALKYL SULFONANILIDE HERBICIDES” (FMC Corporation, priority 2020, published 2023).

How the values were obtained:
Format in all cases: in vivo
[1] = test system: Foxtail, Giant (giant foxtail, Setaria faberi); assay: Test A preemergence, Foxtail, Giant; conditions: Preemergence; for Foxtail, Giant plant response rating: 125 g ai/ha, visual injury on 0 to 100 scale (0 no effect, 100 complete control), approximately 10 days; for Plant response rating, Foxtail, Giant: 500 g ai/ha, 0 to 100 scale (0 no effect, 100 complete control)
Summary of the method: (§1)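 After sowing into a sand-amended loam, pots for the preemergence test were treated by spraying directly onto soil. In parallel, seedlings at the one- to two-leaf stage and 2 to 10 cm tall were treated postemergence with the identical surfactant-containing formulation.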

[2] = test system: pigweed (Amaranthus retroflexus); assay: Test A postemergence, pigweed; conditions: Postemergence, 0 to 100 scale (0 no effect, 100 complete control); for Pigweed plant response rating: visual injury vs untreated controls after approx. 10 days
Summary of the method: as §1

[3] = test system: pigweed (Amaranthus retroflexus); assay: Test A preemergence, pigweed; conditions: for Pigweed plant response rating: 125 g ai/ha, visual injury on 0 to 100 scale (0 no effect, 100 complete control), approximately 10 days; for Plant response rating, Pigweed: 500 g ai/ha, 0 to 100 scale (0 no effect, 100 complete control)
Summary of the method: (§2)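 Directed soil spray at planting gave the preemergence treatment, while foliar application to one- to two-leaf seedlings (2–10 cm) gave the postemergence one; pots held a loam and sand mixture and chemicals were carried in a non-phytotoxic solvent with surfactant.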

[4] = test system: barnyardgrass (Echinochloa crus-galli); assay: Test A postemergence, barnyardgrass; conditions: Postemergence, 0 to 100 scale (0 no effect, 100 complete control); for Barnyardgrass plant response rating: visual injury vs untreated controls after approx. 10 days
Summary of the method: as §2

[5] = test system: blackgrass (Alopecurus myosuroides); assay: Test A postemergence, blackgrass; conditions: Postemergence, 0 to 100 scale (0 no effect, 100 complete control); for Blackgrass plant response rating: visual injury vs untreated controls after approx. 10 days
Summary of the method: as §1

[6] = test system: barnyardgrass (Echinochloa crus-galli); assay: Test A preemergence, barnyardgrass; conditions: Preemergence; for Barnyardgrass plant response rating: 125 g ai/ha, visual injury on 0 to 100 scale (0 no effect, 100 complete control), approximately 10 days; for Plant response rating, Barnyardgrass: 500 g ai/ha, 0 to 100 scale (0 no effect, 100 complete control)
Summary of the method: as §1

[7] = test system: ragweed (common ragweed, Ambrosia artemisiifolia); assay: Test A postemergence, ragweed; conditions: Postemergence, 0 to 100 scale (0 no effect, 100 complete control); for Ragweed plant response rating: visual injury vs untreated controls after approx. 10 days
Summary of the method: as §1

[8] = test system: Foxtail, Giant (giant foxtail, Setaria faberi); assay: Test A postemergence, Foxtail, Giant; conditions: Postemergence, 0 to 100 scale (0 no effect, 100 complete control); for Foxtail, Giant plant response rating: visual injury vs untreated controls after approx. 10 days
Summary of the method: as §1

[9] = test system: Ryegrass, Italian (Italian ryegrass, Lolium multiflorum); assay: Test A postemergence, Ryegrass, Italian; conditions: Postemergence, 0 to 100 scale (0 no effect, 100 complete control); for Ryegrass, Italian plant response rating: visual injury vs untreated controls after approx. 10 days
Summary of the method: as §1

corn (Zea mays) = assay: Test A postemergence, corn; conditions: Postemergence, 0 to 100 scale (0 no effect, 100 complete control); for Corn plant response rating: visual injury vs untreated controls after approx. 10 days
Summary of the method: as §1

[10] = test system: Ryegrass, Italian (Italian ryegrass, Lolium multiflorum); assay: Test A preemergence, Ryegrass, Italian; conditions: Preemergence; for Ryegrass, Italian plant response rating: 125 g ai/ha, visual injury on 0 to 100 scale (0 no effect, 100 complete control), approximately 10 days; for Plant response rating, Ryegrass, Italian: 500 g ai/ha, 0 to 100 scale (0 no effect, 100 complete control)
Summary of the method: as §1

[11] = test system: wheat (Triticum aestivum); assay: Test A postemergence, wheat; conditions: Postemergence, 0 to 100 scale (0 no effect, 100 complete control); for Wheat plant response rating: visual injury vs untreated controls after approx. 10 days
Summary of the method: as §2

[12] = test system: galium (catchweed bedstraw, Galium aparine); assay: Test A postemergence, galium; conditions: Postemergence, 0 to 100 scale (0 no effect, 100 complete control); for Galium plant response rating: visual injury vs untreated controls after approx. 10 days
Summary of the method: as §2

[13] = test system: ragweed (common ragweed, Ambrosia artemisiifolia); assay: Test A preemergence, ragweed; conditions: Preemergence; for Ragweed plant response rating: 125 g ai/ha, visual injury on 0 to 100 scale (0 no effect, 100 complete control), approximately 10 days; for Plant response rating, Ragweed: 500 g ai/ha, 0 to 100 scale (0 no effect, 100 complete control)
Summary of the method: as §1

kochia (Bassia scoparia) [14] = assay: Test A preemergence, kochia; conditions: Preemergence; for Kochia plant response rating: 125 g ai/ha, visual injury on 0 to 100 scale (0 no effect, 100 complete control), approximately 10 days; for Plant response rating, Kochia: 500 g ai/ha, 0 to 100 scale (0 no effect, 100 complete control)
Summary of the method: as §1

kochia (Bassia scoparia) [15] = assay: Test A postemergence, kochia; conditions: Postemergence, 0 to 100 scale (0 no effect, 100 complete control); for Kochia plant response rating: visual injury vs untreated controls after approx. 10 days
Summary of the method: as §1

[16] = 125 g ai/ha, visual injury approx. 10 days
[17] = 500 g ai/ha, visual injury, approx. 10 days

SMILES | Foxtail, Giant plant response rating [1] | Plant response rating, Foxtail, Giant [1] | Plant response rating, Pigweed ([2]; 125 g ai/ha) | Pigweed plant response rating ([2]; 500 g ai/ha) | Pigweed plant response rating [3] | Plant response rating, Pigweed [3] | Barnyardgrass plant response rating ([4]; 500 g ai/ha) | Blackgrass plant response rating ([5]; 500 g ai/ha) | Barnyardgrass plant response rating [6] | Plant response rating, Barnyardgrass [6] | Plant response rating, Ragweed ([7]; 125 g ai/ha) | Ragweed plant response rating ([7]; 500 g ai/ha) | Foxtail, Giant plant response rating ([8]; 500 g ai/ha) | Plant response rating, Ryegrass, Italian ([9]; 125 g ai/ha) | Ryegrass, Italian plant response rating [10] | Plant response rating, Ryegrass, Italian [10] | Ragweed plant response rating [13] | Plant response rating, Ragweed [13] | Kochia plant response rating (kochia (Bassia scoparia) [14]) | Plant response rating, Kochia (kochia (Bassia scoparia) [14]) | other results
Cc1cc(Cl)c(C2=NOC(C)(C)C2)cc1N(S(=O)(=O)C(F)(F)F)S(=O)(=O)C(F)(F)F [Compound 184] | 30 | 90 | 20 | 40 | 70 | 100 | 50 | 20 | 70 | 100 | 40 | 70 | 0 | 0 | 30 | 50 | 80 | 90 | 0 | 0 | Plant response rating, Barnyardgrass ([4]; 125 g ai/ha): 20; Plant response rating, Blackgrass ([5]; 125 g ai/ha): 0; Plant response rating, Foxtail, Giant ([8]; 125 g ai/ha): 0; Ryegrass, Italian plant response rating ([9]; 500 g ai/ha): 0; Plant response rating, Corn (corn (Zea mays); 125 g ai/ha): 0; Corn plant response rating (corn (Zea mays); 500 g ai/ha): 0; Plant response rating, Wheat ([11]; 125 g ai/ha): 0; Wheat plant response rating ([11]; 500 g ai/ha): 0; Plant response rating, Galium ([12]; 125 g ai/ha): 80; Galium plant response rating ([12]; 500 g ai/ha): 90; Plant response rating, Kochia (kochia (Bassia scoparia) [15]; 125 g ai/ha): 0; Kochia plant response rating (kochia (Bassia scoparia) [15]; 500 g ai/ha): 30
Cc1cc(C(F)(F)F)c(NS(=O)(=O)C(F)(F)F)cc1C(=O)N(C)C [Compound 132] | 30 | 90 | 70 | 90 | 100 | 100 | 40 | 0 | 60 | 100 | 60 | 90 | 40 | 0 | 80 | 100 | 80 | 90 | 0 | 70 | Plant response rating, Barnyardgrass [4, 16]: 0; Plant response rating, Blackgrass [5, 16]: 0; Plant response rating, Foxtail, Giant [8, 16]: 20; Ryegrass, Italian plant response rating ([9]; 500 g ai/ha): 40; Plant response rating, Corn (corn (Zea mays); [16]): 0; Corn plant response rating (corn (Zea mays); 500 g ai/ha): 20; Plant response rating, Wheat ([11]; 125 g ai/ha): 40; Wheat plant response rating ([11]; 500 g ai/ha): 0; Plant response rating, Galium [12, 16]: 70; Galium plant response rating ([12]; 500 g ai/ha): 90; Plant response rating, Kochia (kochia (Bassia scoparia) [15]; [16]): 20; Kochia plant response rating (kochia (Bassia scoparia) [15]; 500 g ai/ha): 20
CCn1cc(-c2cc(N(S(=O)(=O)C(F)(F)F)S(=O)(=O)C(F)(F)F)c(C)cc2C)c(=O)n(CC)c1=O [Compound 43] | 100 | 100 | – | – | 20 | 60 | – | – | 90 | 100 | – | – | – | – | 100 | 100 | 0 | 0 | 0 | 90 | Plant response rating, Pigweed [2, 16]: 80; Plant response rating, Pigweed [2, 17]: 80; Plant response rating, Barnyardgrass [4, 16]: 90; Plant response rating, Barnyardgrass [4, 17]: 90; Plant response rating, Blackgrass [5, 16]: 70; Plant response rating, Blackgrass [5, 17]: 90; Plant response rating, Ragweed [7, 16]: 60; Plant response rating, Ragweed [7, 17]: 60; Plant response rating, Foxtail, Giant [8, 16]: 90; Plant response rating, Foxtail, Giant [8, 17]: 90; Plant response rating, Ryegrass, Italian [9, 16]: 20; Plant response rating, Ryegrass, Italian [9, 17]: 50; Plant response rating, Corn (corn (Zea mays); [16]): 10; Plant response rating, Corn (corn (Zea mays); [17]): 80; Plant response rating, Wheat [11, 16]: 70; Plant response rating, Wheat [11, 17]: 70; Plant response rating, Galium [12, 16]: 70; Plant response rating, Galium [12, 17]: 90; Plant response rating, Kochia (kochia (Bassia scoparia) [15]; [16]): 20; Plant response rating, Kochia (kochia (Bassia scoparia) [15]; [17]): 40
